One series concerns AML1-ETO. The series is described as follows: Methylcellulose colony-forming assay, AML1-ETO transduced murine cells. As to conditions: 100 nM or 200 nM; FIG. 2A right panel. It is filed as cell-based, mouse. Here is the method:
Primary mouse bone marrow (BM) cells (transduced with MLL-AF9/KRAS, MLL-AF6, or AML1-ETO/KRAS) were seeded in MethoCult GF M3434 (StemCell Technologies) at a concentration of 1×10^3 cells/replicate. Colonies propagated in culture were scored at day 8. For re-plating of primary mouse BM cells, colonies were harvested from the methylcellulose medium, washed with PBS/1% FBS and seeded again at a concentration of 1×10^3 cells/replicate. MOLM-13 or ML-2 cells infected with either control or PSMB8/LMP7-specific shRNAs were plated at a concentration of 1×10^3 cells in MethoCult H4230 (StemCell Technologies) supplemented with 20% FBS and colony numbers were counted on day 10-14.

A further series deals with non-MLLr cell lines. In words: Cell growth (cell counting after trypan blue exclusion) of non-MLLr cell lines. As to conditions: 50 nM or 100 nM PR-957, 96 hours, vs DMSO; FIG. 1G right. It is filed as cell-based, human. Here is the method:
(§1) MOLM-13, MONO-MAC-6, THP-1, KOPN-8, ML-2, MV-4;11, OCI-AML3, U-937, KASUMI-1, K-562, HL-60 and LAMA-84 cells were purchased from DSMZ (Braunschweig, Germany). Cas9-Blast cell lines are subclones of the respective cell lines and stably transduced with lentiCas9-Blast (Addgene plasmid #52962). Cells were cultured in RPMI 1640 medium (Thermo Fisher Scientific, Waltham, MA, USA) supplemented with 10-20% FBS (Thermo Fisher Scientific) in a humid atmosphere of 5% CO2 at 37° C. MV4;11 cells harboring Menin-inhibitor resistance mediating mutations of Menin were generated by CRISPR-Cas9 technology.
Cellular proliferation was assessed by cell counting after trypan blue exclusion. Apoptosis of cells was measured by flow cytometry using Annexin V/SYTOX® Blue staining following the manufacturer's instruction.

The next series has as its system MOLM-13 and ML-2 cells. In words: Global transcriptome analysis by RNA-sequencing. It is filed as cell-based, human. To be noted: 100 nM PR-957, 72 hours, FIG. 3A. The text has this: Cells were harvested and resuspended in TRIzol™, and RNA was extracted using the TRIzol-Chloroform method (Heidel et al., 2013). RNA-seq libraries were generated using SMART-Seq v4 Ultra Low Input RNA Kit (Takara Bio USA Inc., Mountain View, CA, USA) followed by Nextera XT (Illumina, San Diego, CA, USA).
For analysis, 50 bp single-end reads (Illumina) were aligned to reference genome mm10 and gtf.-transcriptome annotation release M7 (GENCODE) using STAR two-pass mode (Dobin et al., 2013).
GENCODE M7 gtf.-file was used for quantification, performed by STAR, followed by normalization, transformation and differential gene expression analysis in DEseq2 (Love et al., 2014). GSEA was carried out on a public server “Gene Pattern” of Broad Institute (Reich et al., 2006). For analysis of the genetic CRISPRCas9 screen, next generation sequencing was performed on an Illumina NextSeq platform (75 bp, single reads) aiming for a minimum of 30Mio reads per sample.
Therefore, it was sought to determine to which extent the inhibition of PSMB8/LMP7 also contributes to the transcriptional regulation of human MLL-target genes. […] This cell line was selected for its sensitivity to PR-957 (FIG. 3D) and ability to be transduced among the MLLr cell lines evaluated above. […]

The subject of series [1] is leukemic stem cell (LSC), MLL-AF9. The series is described as follows: Limiting dilution assay of MLL-AF9 leukemic bone marrow cells treated ex vivo (ELDA). It is filed as in vivo, mouse. As to conditions: 200 nM PR-957 ex vivo 48 hours.
In series [2] the test system is Menin-inhibitor resistant cell lines (MV-4;11 M327I, T349M). In words: Relative growth of Menin-inhibitor resistant MV-4;11 cell lines. It is filed as cell-based, human. As to conditions: resistance mutations M327I and T349M; 50 nM or 100 nM PR-957; FIG. 4L. As for the experimental part:
as §1

The test system of series [3] is normal hematopoietic cells. The series is described as follows: Normal hematopoiesis: competitive transplantation after in vivo PR-957 treatment. Details: species or system mouse.

`COc1ccc(C[C@H](NC(=O)[C@H](C)NC(=O)CN2CCOCC2)C(=O)N[C@@H](Cc2ccccc2)C(=O)[C@]2(C)CO2)cc1` [PR-957, (2S)-3-(4-methoxyphenyl)-N-[(2S)-1-[(2S)-2-methyloxiran-2-yl]-1-oxo-3-phenylpropan-2-yl]-2-[[(2S)-2-[(2-morpholin-4-ylacetyl)amino]propanoyl]amino]propanamide]: the “reduction of clonogenic potential, non-MLL fusion oncogene AML1-ETO” value in the series on AML1-ETO was “not detectable”. In addition, the “cell growth in non-MLLr cell lines” value in the series on non-MLLr cell lines is on record as “largely unaffected”. Also, the “genes regulated in both cell lines upon treatment (overlap)” value in the series with MOLM-13 and ML-2 cells was 457 genes. The “reduction in LSC frequency compared to diluent treated controls” value in series [1] is reported as “more than log-fold reduction”. Further, the LSC frequency in series [1] (ELDA, DMSO 1/4550, FIG. 2H,I) is on record as 1/57610. For the same compound, the “sensitivity of Menin-inhibitor resistant cell lines to immunoproteasome inhibition” value in series [2] was “preserved sensitivity”. In series [3] (PR-957 for 3 weeks (10 mg/kg, 5 days/week), FIGS. 2K,L,M), the “hematopoietic stem- and progenitor cell abundance” value is listed as “did not show any changes”. Besides, the “stem- and progenitor cell chimerism in secondary recipients” value in series [3] (previous PR-957 treatment, FIGS. 2O,P,Q) is “not affected”. In addition, the “peripheral blood chimerism in secondary recipient mice” value in series [3] (until week 16, FIG. 2N) is reported as “no changes”.
